Patent US20220380366A1, “HETEROCYCLIC SULFOXIMINE COMPOUND AND INTERMEDIATE THEREOF, PREPARATION METHOD THEREFOR, AND APPLICATION THEREOF” (priority 2019, published 2022)
Read-outs that look alike come from different tables or passages of the source.

Experiments:
[1] = target: T1, RET-CCDC6 (Homo sapiens, UniProt P07949); experiment: Biochemical IC50 of RET-CCDC6 fusion (33P-ATP filter binding, Reaction Biology)
T1 construct: CCDC6 (fusion partner, UniProt Q16204); purchased Reaction Biology Corporation (contract assay; enzyme is the CRO's); the other entry of the earlier key: CCDC6 (Q16204, Coiled-coil domain-containing protein 6)
T1 sequence (P07949 with tags, fused parts or gaps): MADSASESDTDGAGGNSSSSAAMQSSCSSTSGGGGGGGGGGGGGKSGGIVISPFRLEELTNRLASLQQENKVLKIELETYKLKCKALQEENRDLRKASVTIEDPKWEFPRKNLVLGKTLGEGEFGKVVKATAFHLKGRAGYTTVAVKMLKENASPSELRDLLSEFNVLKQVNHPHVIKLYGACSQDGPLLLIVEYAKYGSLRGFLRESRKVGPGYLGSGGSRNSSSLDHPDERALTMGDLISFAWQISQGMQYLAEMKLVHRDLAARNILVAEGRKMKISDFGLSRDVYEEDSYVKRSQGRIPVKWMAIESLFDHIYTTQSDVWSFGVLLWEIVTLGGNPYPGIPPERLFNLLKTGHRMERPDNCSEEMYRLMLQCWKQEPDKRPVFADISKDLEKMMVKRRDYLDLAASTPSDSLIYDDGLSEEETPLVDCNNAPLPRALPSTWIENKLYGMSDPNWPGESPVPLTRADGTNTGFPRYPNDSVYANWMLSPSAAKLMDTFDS
Description: (§1) For detailed test methods, the following references were referred to: T. Anastassiadis, S. W. Deacon, K. Devarajan, H. Ma, J. R. Peterson. […] Nat. Biotech.
(§2) The compounds of the present invention were dissolved in dimethyl sulfoxide (DMSO) to prepare 10 mM stock solutions, and ten different doses by 3-fold serial dilutions from 10 mM were prepared. The ATP concentration used in this determination was 1 μM.
(§3) Base reaction buffer: 20 mM 4-(2-hydroxyethyl)-1-piperazineethanesulfonic acid buffer (Hepes, pH 7.5), 10 mM magnesium chloride, 1 mM ethylene glycol-bis(3-aminoethylether)-N,N,N′,N′-tetraacetic acid (EGTA), 0.02% Brij™-35 (purchased from ThermoFisher Scientific), 0.02 mg/mL bovine serum albumin (BSA), 0.1 mM sodium orthovanadate (Na3VO4), 2 mM dithiothreitol (DTT), 1% dimethyl sulfoxide (DMSO).
(§4) a) adding the corresponding substrate to a freshly prepared base reaction buffer;
(§5) b) adding necessary cofactors;
(§6) c) adding kinase and shake gently;
(§7) d) adding the compounds in DMSO using Acoustic technology (Echo550; nanoliter range) and incubating at room temperature for 20 minutes;
(§8) e) adding 33P-ATP (specific activity 10 μCi/μL) to initiate the reaction;
(§9) f) incubating the kinase reaction at room temperature for 2 hours;
(§10) g) spotting the resultant of reaction on P81 ion exchange paper (purchased from Whatman);
(§11) h) detecting kinase activity by filter binding assay.
(§12) IC50 values were generated using Prism (GraphPad software).

[2] = target: T2, RET(V804M) mutant (Homo sapiens, UniProt P07949, V804M); experiment: Biochemical IC50 of RET(V804M) mutant (33P-ATP filter binding, Reaction Biology)
T2 construct: purchased Reaction Biology Corporation (contract assay; enzyme is the CRO's)
T2 sequence (P07949 29-1114 V804M): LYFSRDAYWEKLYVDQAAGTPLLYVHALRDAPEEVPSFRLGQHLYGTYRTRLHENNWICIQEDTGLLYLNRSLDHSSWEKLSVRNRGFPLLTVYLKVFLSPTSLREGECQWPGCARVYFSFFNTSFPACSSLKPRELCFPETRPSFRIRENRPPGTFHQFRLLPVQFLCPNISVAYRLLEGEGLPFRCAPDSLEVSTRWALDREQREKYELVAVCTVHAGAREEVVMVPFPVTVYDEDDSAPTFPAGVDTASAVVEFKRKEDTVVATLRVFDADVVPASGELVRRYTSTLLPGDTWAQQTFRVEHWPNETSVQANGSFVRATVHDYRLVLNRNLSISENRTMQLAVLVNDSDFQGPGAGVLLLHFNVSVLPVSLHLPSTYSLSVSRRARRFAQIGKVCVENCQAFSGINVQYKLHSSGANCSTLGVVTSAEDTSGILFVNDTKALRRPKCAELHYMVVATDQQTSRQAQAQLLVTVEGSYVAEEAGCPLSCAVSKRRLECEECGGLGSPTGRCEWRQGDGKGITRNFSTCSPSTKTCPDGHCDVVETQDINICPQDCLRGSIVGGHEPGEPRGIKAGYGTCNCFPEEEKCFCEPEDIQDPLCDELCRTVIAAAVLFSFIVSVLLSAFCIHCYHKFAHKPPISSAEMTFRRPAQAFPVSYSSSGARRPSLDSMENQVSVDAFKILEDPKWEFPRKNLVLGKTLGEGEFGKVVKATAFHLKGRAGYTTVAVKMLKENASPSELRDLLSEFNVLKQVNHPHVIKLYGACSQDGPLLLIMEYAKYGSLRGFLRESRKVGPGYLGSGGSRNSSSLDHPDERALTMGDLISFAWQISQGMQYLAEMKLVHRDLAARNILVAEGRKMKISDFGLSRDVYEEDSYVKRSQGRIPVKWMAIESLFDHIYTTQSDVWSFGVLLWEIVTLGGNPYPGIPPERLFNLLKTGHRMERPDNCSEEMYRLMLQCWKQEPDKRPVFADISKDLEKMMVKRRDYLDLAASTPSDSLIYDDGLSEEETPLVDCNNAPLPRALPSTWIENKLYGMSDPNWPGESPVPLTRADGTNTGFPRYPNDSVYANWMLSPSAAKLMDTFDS
Description: as §1, §2, §3, §4, §5, §6, §7, §8, §9, §10, §11, §12

[3] = target: T3, wild-type RET kinase (Homo sapiens, UniProt P07949); experiment: Biochemical IC50 of wild-type RET kinase (33P-ATP filter binding, Reaction Biology)
T3 construct: purchased Reaction Biology Corporation (contract assay; enzyme is the CRO's)
T3 sequence (P07949 29-1114): as the sequence (P07949 29-1114 V804M) above, with M776V counted along it
Description: as §1, §2, §3, §4, §5, §6, §7, §8, §9, §10, §11, §12

[4] = system: Phospho-RET in LC-2/ad lung cancer cells; experiment: Phospho-RET ELISA in LC-2/ad tumor cells; type: cell-based; details: Homo sapiens, 1 h, read-out: Cell IC50 Phospho-RET
Description: (§13) The compounds of the present invention were dissolved in dimethyl sulfoxide (DMSO) to prepare 10 mM stock solutions, and ten different doses by 3-fold serial dilutions from 10 mM were prepared. An ELISA assay format was used in the test.
(§14) PathScan® Phospho-Ret (panTyr) and p44/42 MAPK (Thr202/Tyr204) (ERK) Sandwich ELISA kits were purchased from Cell Signaling Technology. The LC-2/ad lung cancer cell line was purchased from Sigma-Aldrich. […] The medium was supplemented with 10% fetal bovine serum (FBS), 100 μg/mL penicillin and 100 μg/mL streptomycin, and the cultures were maintained at 37° C. in a humidified atmosphere of 5% CO2 and 95% air.
(§15) a) 1.5×10^4 LC-2/ad cells were seeded in the wells of a 96-well tissue culture plate overnight;
(§16) b) the cells were treated with DMSO or the test compound in DMSO (the initial concentration was 1 μM, and ten doses by 3-fold serial dilutions) for one hour;
(§17) The plate was shaken for 1 minute, then placed on a rocking platform at 4° C. for 30 minutes;
(§18) d) 80 μL/well of lysate was added to the appropriate wells of each ELISA plate and the plate was incubated overnight at 4° C. on a rocking platform;
(§19) e) the contents of the plate were discarded into a container and the wells were washed for four times with 200 μL/well of 1×ELISA wash buffer;
(§20) f) 100 μL of reconstituted Phospho-Ret(panTyr) or Phospho-ERK(Thr202/Tyr204; p44/42MAPK) detection antibody was added to the appropriate wells and the plate was incubated at 37° C. for 1 hour;
(§21) g) the washing procedure was repeated and 100 μL of reconstituted HRP-linked secondary antibody was added to each well of two plates and the plates were incubated at 37° C. for 30 minutes;
(§22) h) the washing procedure was repeated, 100 μL of TMB substrate was added to each well, and the plates were incubated at 37° C. for 45 minutes;
(§23) i) 100 μL of STOP solution was added to each well and the plate was gently shaken for a few seconds.

[5] = system: Phospho-ERK in LC-2/ad lung cancer cells; experiment: Phospho-ERK ELISA in LC-2/ad tumor cells; type: cell-based; details: Homo sapiens, 1 h, read-out: Cell IC50 Phospho-ERK
Description: as §13, §14, §15, §16, §17, §18, §19, §20, §21, §22, §23

[6] = RET-CCDC6 fusion, ATP 1 μM, 33P-ATP filter binding, read-out: Biochemical IC50 RET-CCDC6
[7] = RET(V804M) mutant, ATP 1 μM, 33P-ATP filter binding, read-out: Biochemical IC50 RET (V804M)
[8] = wild-type RET kinase, ATP 1 μM, 33P-ATP filter binding, read-out: Biochemical IC50 RET

Compound	IC50 [1, 6]	IC50 [2, 7]	IC50 [3, 8]	IC50 ([4]; LC-2-ad)	IC50 [5]	IC50 [1]	IC50 [2]	IC50 [3]	IC50 ([4]; LC-2/ad lung cancer cells, one hour treatment, sandwich ELISA)
CC(C)(O)COc1cc(-c2ccc(N3CCS(=N)(=O)CC3)nc2)c2c(C#N)cnn2c1 [Ex. 2, 6-(2-hydroxy-2-methylpropoxy)-4-(6-(1-imino-1-oxothiomorpholinyl)pyridin-3-yl)pyrazolo[1,5-a]pyridine-3-carbonitrile]	2.81 nM	21.2 nM	4.23 nM						
COc1ccc(N=S2(=O)CCN(c3ccc(-c4cc(OCC(C)(C)O)cn5ncc(C#N)c45)cn3)CC2)cn1 [Ex. 3, 6-(2-hydroxy-2-methylpropoxy)-4-(6-(1-((6-methoxypyridin-3-yl)imino)-1-oxothiomorpholinyl)pyridin-3-yl)pyrazolo[1,5-a]pyridine-3-carbonitrile]	0.993 nM	3.78 nM	1.66 nM						
CC(C)CN=S1(=O)CCN(c2ccc(-c3cc(OCC(C)(C)O)cn4ncc(C#N)c34)cn2)CC1 [Ex. 4, 6-(2-hydroxy-2-methylpropoxy)-4-(6-(1-(isobutylimino)-1-oxothiomorpholinyl)pyridin-3-yl)pyrazolo[1,5-a]pyridine-3-carbonitrile]	4.59 nM	55.7 nM	6.74 nM						
COc1ccc(CN=S2(=O)CCN(c3ccc(-c4cc(OCC(C)(C)O)cn5ncc(C#N)c45)cn3)CC2)cn1 [Ex. 5, 6-(2-hydroxy-2-methylpropoxy)-4-(6-(1-(((6-methoxypyridin-3-yl)methyl)imino)-1-oxothiomorpholinyl)pyridin-3-yl)pyrazolo[1,5-a]pyridine-3-carbonitrile]	2.09 nM	17.9 nM	3.62 nM						
CC(C)(O)COc1cc(-c2ccc(N3CCS(=O)(=NC4CCNCC4)CC3)nc2)c2c(C#N)cnn2c1 [Ex. 7, 6-(2-hydroxy-2-methylpropoxy)-4-(6-(1-oxo-1-(piperidin-4-ylimino)thiomorpholinyl)pyridin-3-yl)pyrazolo[1,5-a]pyridine-3-carbonitrile]	12.6 nM	165 nM	18.1 nM						
CC(C)(O)COc1cc(-c2ccc(N3CCC(N=S(C)(C)=O)CC3)nc2)c2c(C#N)cnn2c1 [Ex. 8, 4-(6-(4-((dimethyloxo-λ^4-sulfinyl)amino)piperidin-1-yl)pyridin-3-yl)-6-(2-hydroxy-2-methylpropoxy)pyrazolo[1,5-a]pyridine-3-carbonitrile]	5.89 nM	63.6 nM	9.45 nM						
CC(C)(O)COc1cc(-c2ccc(N3CCC(N=[S@@](C)(=O)c4ccccc4)CC3)nc2)c2c(C#N)cnn2c1 [Ex. 9, 4-(6-(4-(((S)—S-methyl-S-phenyl-oxo-λ^4-sulfinyl)amino)piperidin-1-yl)pyridin-3-yl)-6-(2-hydroxy-2-methylpropoxy)pyrazolo[1,5-a]pyridine-3-carbonitrile]	8.14 nM	138 nM	14.2 nM						
CC(C)(O)COc1cc(-c2ccc(N3CCC(N=[S@](C)(=O)c4ccccc4)CC3)nc2)c2c(C#N)cnn2c1 [Ex. 10, 4-(6-(4-(((R)—S-methyl-S-phenyl-oxo-λ^4-sulfinyl)amino)piperidin-1-yl)pyridin-3-yl)-6-(2-hydroxy-2-methylpropoxy)pyrazolo[1,5-a]pyridine-3-carbonitrile]	4.59 nM	36 nM	6.18 nM						
Cn1cc(-c2cc(-c3ccc(N4CCS(=N)(=O)CC4)nc3)c3c(C#N)cnn3c2)cn1 [Ex. 12, 4-(6-(1-imino-1-oxothiomorpholinyl)pyridin-3-yl)-6-(1-methyl-1H-pyrazole-4-yl)pyrazolo[1,5-a]pyridine-3-carbonitrile]	0.523 nM	5.55 nM	0.849 nM	11.5 nM	246 nM				
CC(C)CN=S1(=O)CCN(c2ccc(-c3cc(-c4cnn(C)c4)cn4ncc(C#N)c34)cn2)CC1 [Ex. 13, 4-(6-(1-(isobutylimino)-1-oxothiomorpholinyl)pyridin-3-yl)-6-(1-methyl-1H-pyrazole-4-yl)pyrazolo[1,5-a]pyridine-3-carbonitrile]				16.3 nM	6.55 nM	0.416 nM	5.1 nM	0.89 nM	
Cn1cc(-c2cc(-c3ccc(N4CCC(N=[S@@](C)(=O)c5ccccc5)CC4)nc3)c3c(C#N)cnn3c2)cn1 [Ex. 17, 4-(6-(4-(((S)—S-methyl-S-phenyl-oxo-λ^4-sulfinyl)amino)piperidin-1-yl)pyridin-3-yl)-6-(1-methyl-1H-pyrazole-4-yl)pyrazolo[1,5-a]pyridine-3-carbonitrile]	0.776 nM	10.6 nM	1.49 nM						
COc1ccc(N=S2(=O)CCN(c3ccc(-c4nc(-c5cnn(C)c5)cn5ncc(C#N)c45)cn3)CC2)cn1 [Ex. 22, 4-(6-(1-((6-methoxypyridin-3-yl)imino)-1-oxothiomorpholinyl)pyridin-3-yl)-6-(1-methyl-1H-pyrazole-4-yl)pyrazolo[1,5-a]pyrazine-3-carbonitrile]	0.41 nM	3.24 nM	0.673 nM						
Cn1cc(-c2cn3ncc(C#N)c3c(-c3ccc(N4CCC(N=S(C)(C)=O)CC4)nc3)n2)cn1 [Ex. 23, 4-(6-(4-((dimethyloxo-λ^4-sulfinyl)amino)piperidin-1-yl)pyridin-3-yl)-6-(1-methyl-1H-pyrazole-4-yl)pyrazolo[1,5-a]pyrazine-3-carbonitrile]						2.16 nM	25 nM	4.09 nM	
Cn1cc(-c2cn3ncc(C#N)c3c(-c3ccc(N4CCC(N=[S@@](C)(=O)c5ccccc5)CC4)nc3)n2)cn1 [Ex. 24, 4-(6-(4-(((S)—S-methyl-S-phenyl-oxo-λ^4-sulfinyl)amino)piperidin-1-yl)pyridin-3-yl)-6-(1-methyl-1H-pyrazole-4-yl)pyrazolo[1,5-a]pyrazine-3-carbonitrile]	1.93 nM	26.3 nM	4.06 nM						
COc1ccc(CN2C3CC2CN(c2ccc(-c4cc(OCC(C)(C)O)cn5ncc(C#N)c45)cn2)C3)cn1 [LOXO292, reference compound]					> 1000 nM				6.08 nM
